Assay results reported in patent US20240343828A1, “SPINK1 AS A TARGET FOR THERAPEUTIC INTERVENTION IN LUNG DISEASES” (Northwestern University, priority 2023, published 2024).

Tests used:
[1] = tested on: mouse lung; assay: scRNA-seq analysis of lung tissues from the animal experiment; assay type: in vivo
Text: Using the lung tissues collected from our animal experiment, Applicant performed the scRNA-seq analysis and identified 36 different cell types within epithelial, endothelial, stromal and immune compartments (FIG. 17A).
Since AT2s are the fibrosis driver^21,23, Applicant performed the differential gene expression between bleomycin vs combo treatment to identify the potential genes that are invoked by Spink1.

[2] = tested on: fibroblasts; assay: Fibroblast proliferation with Spink1 incubation; assay type: cell-based
Procedure: FIGS. 23A-23C: In vitro experiment to validate the functional role of Spink1 in mediating stromal cell activity. Gene expression changes in fibroblasts with the incubation of different concentration of Spink1 protein (FIG. 23A). The proliferation rate of fibroblasts with the incubation of Spink1 (FIG. 23B). The proliferation rate was calculated as the difference between end point and start point, followed by the division of start point value. Zero proliferation rate indicates no proliferation is detected. The changes of aSMA gene in fibroblasts with the incubation of Spink1 and EGFR inhibitor of AG1468 (FIG. 23C).
Applicant also tested the proliferation activity of fibroblast with the incubation of Spink1. […] Furthermore, Applicant hypothesized that the differentiation of fibroblast toward aSMA+ cells could be EGFR pathway dependent.

[3] = tested on: mouse; conditions: mice with bleomycin pre-treatment
Procedure: Two sets of experiment were set up: one set with bleomycin pretreatment and the other without bleomycin pretreatment(FIG. 10). Applicant labeled as the groups as: PBS, recombinant Spink1 protein, bleomycin and the combo of bleomycin and recombinant Spink1 protein (the last two groups are the one with bleomycin pretreatment).
For experiment one, Applicant have four groups as illustrated in FIG. 10. Intrathecal administration was used in this study and 20 ug recombinant protein was injected each time. For the group without bleomycin pretreatment, the animals were injected every third day until they were killed at day 22. For the group with bleomycin pretreatment, the animals were pretreated with bleomycin and then the first dose of recombinant Spink1 protein was injected at day 14 after the bleomycin pretreatment. Another 4 doses were given at day 21, day 24, day 27 and day 30. The animals were killed at day 34 and the tissues were harvested and frozen/fixed for further analysis.

[4] = tested on: mouse lung; assay: Sircol assay of collagen content; assay type: in vivo
Text: To further understand the impact of Spink1 on lung fibrosis, Applicant performed the molecular experiment to mutate Spink amino acid sequence. Applicant generated two Spink1 variants (protein 2: R19Y and protein 3: R19A) to denote the ones with activity preserved (protein 2: R19Y) and activity ablation (protein 3: R19A). Applicant used these two variants, together with Spink1 wild type protein and PBS, to conduct the animal experiments using healthy mice (FIG. 15).

[5] = tested on: mouse lung; assay: Trichome staining of mouse lung; assay type: in vivo; conditions: Spink1-treated mouse lungs
Procedure: (§1) The H&E histology experiment and trichome staining assay were conducted in histology core at northwestern university.

[6] = tested on: fibroblasts; assay: In vitro fibroblast gene expression with Spink1 incubation; assay type: cell-based; conditions: different Spink1 concentrations, 24 hours
Procedure: Applicant performed an in vitro experiment to further validate the functional role of SPINK1 in mediating fibroblasts and aSMA+ stromal cells. Applicant incubated fibroblasts with different concentration of recombinant mouse Spink1 protein for 24 hours and tested the gene expression level. […] However, the expression level of aSMA was elevated in response to Spink1 treatment (FIG. 23A). This implied that Spink1 could drive the differentiation of fibroblast toward aSMA+ stromal cells.

[7] = tested on: mouse lung; assay: H&E staining of mouse lung; assay type: in vivo; conditions: Spink1-treated mouse lungs
Procedure: as §1

[8] = pathway enrichment, PBS vs Spink1 treatment

“Spink1: recombinant mouse Spink1 (Spink3) protein, homologue of human SPINK1, Serine protease inhibitor Kazal-type 1 (AKVTGKEASCHDAVAGCPRIYDPVCGTDGITYANECVLCFENRKRIEPVLIRKGGPC; UniProt P09036 24-80, looked up)” was tested, and the “gene set "Negative regulation of fibroblast proliferation" (GSEA)” value ([1]; AT2, combo vs bleomycin) was “induces the down-regulation”, the “phagosome maturation gene set (GSEA)” value ([1]; AT2, combo vs bleomycin) was “significantly down-regulated” and the “expression level of Cdc42” value ([1]; mouse treated with Spink1) was “significantly decreased expression level”. The “apoptosis of aSMA+ cells” value [1, 8] was “arrested the apoptosis of aSMA+ cells”, the “wound healing pathway in fibroblasts” value [1, 8] was “downregulated” and the “expression level of Ftl1” value ([1]; regardless of the bleomycin pretreatment) was “seems to vanish”. For the same substance, the “proliferation rate of fibroblast” value ([2]; 24 hr Spink1 incubation) was “high proliferation rate”, the “proliferation rate of fibroblast” value ([2]; 48 hr incubation) was “increased rate disappears” and the body weight change [3] was “induce weight loss”. The “collagen accumulation (Sircol)” value ([4]; healthy animals, no bleomycin pretreatment) was “can induce the collagen accumulation”, the “collagen content (Sircol)” value ([4]; mice with Spink1 treatment, 20 ug per injection) was “accumulative collagen content” and the “collagen deposition (trichome staining)” value [5] was “high level of collagen accumulated”. The “expression level of Col1a1” value [6] was “not significantly changed”, the “expression level of Fibronectin” value [6] was “not significantly changed” and the “expression level of aSMA” value [6] was “elevated”. For the same substance, the “alveolar damage and immune cell infiltration (H&E)” value [7] was “notable alveolar damage and immune cell infiltration”.
With bleomycin [reference compound] the “Cthrc1+ fibroblasts in stromal compartment” value ([1]; mouse lung scRNA-seq) was “induces the overproduction of Cthrc1^+ fibroblasts”.
“protein 3: R19A: Spink1 variant R19A with activity ablation (AKVTGKEASCHDAVAGCPAIYDPVCGTDGITYANECVLCFENRKRIEPVLIRKGGPC; UniProt P09036 24-80, looked up, variant R19A)” was tested, and the “collagen accumulation (Sircol), Spink1 variants” value ([4]; healthy mice, 6 doses, compared with wild type Spink1 and PBS) was “fails to induce collagen accumulation”.
